Measurements reported in article PMC6222927, “Aminobenzosuberone Scaffold as a Modular Chemical Tool for the Inhibition of Therapeutically Relevant M1 Aminopeptidases” (Molecules : A Journal of Synthetic Chemistry and Natural …, 2018).
Like-named read-outs stand apart in the source and are kept apart here. Marks after values point to notes of the source that are not given here.

Key:
[1] = Octanol/water partition coefficient (logD7.4) by reversed-phase HPLC; settings: pH 7.4
Procedure: The flow was 0.9 mL/min. The aminobenzosuberone derivatives were dissolved at 0.4 µM in methanol. The standards were also dissolved in methanol. Column void volume was estimated from the retention time of uracil, which was included as a non-retained internal reference with each injection.

E. coli rEcPepN = E. coli rEcPepN (Escherichia coli, UniProt P04825); assay: rEcPepN inhibition, Leu-pNA substrate, Dixon method; type: biochemical
Chain of E. coli rEcPepN (P04825 whole entry): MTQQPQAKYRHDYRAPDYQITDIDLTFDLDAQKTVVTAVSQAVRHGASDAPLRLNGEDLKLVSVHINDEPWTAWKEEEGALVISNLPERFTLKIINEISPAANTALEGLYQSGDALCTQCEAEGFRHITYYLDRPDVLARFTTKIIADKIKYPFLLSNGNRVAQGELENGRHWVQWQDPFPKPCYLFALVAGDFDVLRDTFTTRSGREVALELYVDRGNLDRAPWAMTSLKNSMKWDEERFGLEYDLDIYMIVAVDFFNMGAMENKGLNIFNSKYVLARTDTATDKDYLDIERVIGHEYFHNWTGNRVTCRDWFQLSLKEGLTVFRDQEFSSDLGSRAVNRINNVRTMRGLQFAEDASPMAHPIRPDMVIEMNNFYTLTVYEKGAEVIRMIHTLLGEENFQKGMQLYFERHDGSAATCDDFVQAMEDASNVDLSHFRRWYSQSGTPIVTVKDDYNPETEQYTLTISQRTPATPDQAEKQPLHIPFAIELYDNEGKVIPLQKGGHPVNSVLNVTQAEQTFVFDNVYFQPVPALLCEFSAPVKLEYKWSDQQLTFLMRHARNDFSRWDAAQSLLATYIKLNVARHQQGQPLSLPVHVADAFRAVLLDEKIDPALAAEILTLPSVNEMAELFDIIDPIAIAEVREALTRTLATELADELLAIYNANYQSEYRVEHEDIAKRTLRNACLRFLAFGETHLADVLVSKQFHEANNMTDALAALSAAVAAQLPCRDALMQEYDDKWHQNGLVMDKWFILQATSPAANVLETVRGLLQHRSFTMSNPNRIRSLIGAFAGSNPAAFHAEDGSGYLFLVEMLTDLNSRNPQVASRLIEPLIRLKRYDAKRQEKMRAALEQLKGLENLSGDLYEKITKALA
Procedure: Enzyme activity assays were carried out in 10 mM Tris-HCl buffer at pH 7.5 with 150 mM NaCl, enzyme, 100 µM substrate (Leu-pNA) in a 100 μL reaction at 37 °C. The absorbance was read at 405 nm. Concentrations ranging from 1 nM to 100 μM of inhibitors (dissolved in DMSO) were incubated with each of the enzymes ([…]) for 30 min at 37 °C in a 96 well plate. After addition of the substrate, immediate increase in absorption was measured. All inhibition assays were performed in triplicates and initial velocities were measured. Percentage inhibition and log values of inhibitor concentrations were plotted using SigmaPlot to determine IC50 values. Ki values were determined by the Dixon method. The assay consists of reaction buffer, enzyme and varied concentrations of Leu-pNA (25, 50, 100, 200 and 400 µM). […] Data were plotted as 1/rate versus inhibitor concentration for each substrate concentration and a linear fit was calculated by non-linear regression using SigmaPlot12.5. All the reactions were performed in triplicates, SD values were reported.

pAPN from porcine kidney = settings: Dixon plots; cited from earlier work
[2] = molecular target: human leukotriene A4 hydrolase (rHsLTA4H); set-up: method as in PMID 21843945; settings: cited from earlier work; for Ki: ref 58; for % of inhibition of rHsLTA4H: determined at 100 µM
[3] = molecular target: aminopeptidase from A. proteolytica (AAP); set-up: method as in PMID 21843945; settings: ref 58; cited from earlier work
P. falciparum rPfAM1 = molecular target: T1, P. falciparum rPfAM1 (Plasmodium falciparum, UniProt O96935); assay: biochemical; type: biochemical
T1 construct: made in house; host or cells: Escherichia coli Rosetta 2 (DE3)
T1 sequence (O96935 1-1085): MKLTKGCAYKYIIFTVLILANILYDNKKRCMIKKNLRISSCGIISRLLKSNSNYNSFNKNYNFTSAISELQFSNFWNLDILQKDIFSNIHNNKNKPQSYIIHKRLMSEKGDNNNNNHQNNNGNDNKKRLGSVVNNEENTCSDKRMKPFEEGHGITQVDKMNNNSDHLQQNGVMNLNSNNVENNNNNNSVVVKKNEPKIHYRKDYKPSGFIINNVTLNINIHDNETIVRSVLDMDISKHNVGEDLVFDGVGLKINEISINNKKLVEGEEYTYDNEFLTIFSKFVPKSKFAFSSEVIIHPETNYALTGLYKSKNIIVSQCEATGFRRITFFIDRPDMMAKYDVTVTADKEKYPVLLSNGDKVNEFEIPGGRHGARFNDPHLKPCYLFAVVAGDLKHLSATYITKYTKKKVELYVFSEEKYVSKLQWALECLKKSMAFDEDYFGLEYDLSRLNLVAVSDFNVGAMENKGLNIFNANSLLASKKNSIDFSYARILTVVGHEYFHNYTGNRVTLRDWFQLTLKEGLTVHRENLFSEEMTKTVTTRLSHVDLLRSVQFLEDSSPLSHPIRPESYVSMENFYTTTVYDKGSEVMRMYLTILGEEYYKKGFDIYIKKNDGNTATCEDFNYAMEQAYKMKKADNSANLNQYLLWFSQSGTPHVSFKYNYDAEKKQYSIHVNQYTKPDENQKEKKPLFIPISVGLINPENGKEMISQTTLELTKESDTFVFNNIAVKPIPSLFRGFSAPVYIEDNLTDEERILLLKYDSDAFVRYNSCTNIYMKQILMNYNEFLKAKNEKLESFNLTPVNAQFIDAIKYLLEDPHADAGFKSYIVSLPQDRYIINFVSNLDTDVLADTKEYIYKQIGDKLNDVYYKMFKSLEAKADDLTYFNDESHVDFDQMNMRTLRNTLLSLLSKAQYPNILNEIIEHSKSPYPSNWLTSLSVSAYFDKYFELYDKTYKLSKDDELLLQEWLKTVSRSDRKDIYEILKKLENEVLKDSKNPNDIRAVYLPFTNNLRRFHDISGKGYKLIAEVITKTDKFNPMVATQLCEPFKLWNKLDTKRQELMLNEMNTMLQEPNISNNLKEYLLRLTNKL
Procedure: Initial velocities were measured with increasing concentrations of inhibitors and Ki values were determined by Dixon plots in triplicate.

[4] = molecular target: T2, human endoplasmic reticulum aminopeptidase 1 (rHsERAP1) (Homo sapiens, UniProt Q9NZ08); assay: rHsERAP1 inhibition, L-AMC fluorigenic substrate; type: biochemical; settings: 50 µM L-AMC
T2 construct: made in house; host or cells: Hi5 insect cells (baculovirus produced in sf9)
T2 sequence (Q9NZ08 whole entry): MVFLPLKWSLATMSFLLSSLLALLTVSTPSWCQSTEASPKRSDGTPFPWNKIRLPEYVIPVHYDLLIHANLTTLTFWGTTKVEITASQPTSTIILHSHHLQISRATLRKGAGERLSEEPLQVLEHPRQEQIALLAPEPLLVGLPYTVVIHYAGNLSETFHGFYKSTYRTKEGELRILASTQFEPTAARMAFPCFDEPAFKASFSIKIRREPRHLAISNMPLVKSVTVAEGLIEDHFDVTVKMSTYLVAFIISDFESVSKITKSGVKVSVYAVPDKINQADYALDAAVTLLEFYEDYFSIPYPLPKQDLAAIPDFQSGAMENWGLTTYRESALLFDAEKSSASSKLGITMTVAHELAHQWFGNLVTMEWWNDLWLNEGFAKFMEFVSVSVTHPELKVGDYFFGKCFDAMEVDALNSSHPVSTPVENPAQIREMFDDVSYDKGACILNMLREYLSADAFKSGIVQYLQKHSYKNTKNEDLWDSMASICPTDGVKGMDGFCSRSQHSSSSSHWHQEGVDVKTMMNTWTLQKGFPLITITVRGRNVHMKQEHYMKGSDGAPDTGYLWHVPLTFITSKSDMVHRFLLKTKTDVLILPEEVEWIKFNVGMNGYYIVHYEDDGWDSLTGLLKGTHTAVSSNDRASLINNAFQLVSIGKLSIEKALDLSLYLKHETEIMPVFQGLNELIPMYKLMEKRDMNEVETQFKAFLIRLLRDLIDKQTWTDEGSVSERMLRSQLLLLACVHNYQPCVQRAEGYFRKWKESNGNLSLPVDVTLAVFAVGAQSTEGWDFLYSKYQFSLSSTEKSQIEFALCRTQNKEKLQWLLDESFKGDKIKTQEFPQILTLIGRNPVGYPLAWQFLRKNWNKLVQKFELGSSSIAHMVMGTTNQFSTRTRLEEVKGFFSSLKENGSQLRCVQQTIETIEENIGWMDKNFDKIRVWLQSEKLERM
Procedure: (§1) The enzymatic activity of HsERAP1, HsERAP2 and HsIRAP was determined by following the time-dependent increase in fluorescence at 460 nm (excitation: 380 nm) of the fluorigenic substrates L-Leucine-7-amido-4-methyl coumarin (L-AMC; Sigma, Darmstatd, Germany) for HsERAP1 and HsIRAP and L-arginyl-7-amido-4-methyl coumarin (R-AMC; Sigma) for HsERAP2. […] The reaction was followed for 10 min at room temperature and the remaining enzymatic activity was calculated by measuring the slope of the time course.

[5] = molecular target: T3, human endoplasmic reticulum aminopeptidase 2 (rHsERAP2) (Homo sapiens, UniProt Q6P179); assay: rHsERAP2 inhibition, R-AMC fluorigenic substrate; type: biochemical; settings: 50 µM R-AMC
T3 construct: made in house; host or cells: Hi5 insect cells (baculovirus produced in sf9)
T3 sequence (Q6P179 whole entry): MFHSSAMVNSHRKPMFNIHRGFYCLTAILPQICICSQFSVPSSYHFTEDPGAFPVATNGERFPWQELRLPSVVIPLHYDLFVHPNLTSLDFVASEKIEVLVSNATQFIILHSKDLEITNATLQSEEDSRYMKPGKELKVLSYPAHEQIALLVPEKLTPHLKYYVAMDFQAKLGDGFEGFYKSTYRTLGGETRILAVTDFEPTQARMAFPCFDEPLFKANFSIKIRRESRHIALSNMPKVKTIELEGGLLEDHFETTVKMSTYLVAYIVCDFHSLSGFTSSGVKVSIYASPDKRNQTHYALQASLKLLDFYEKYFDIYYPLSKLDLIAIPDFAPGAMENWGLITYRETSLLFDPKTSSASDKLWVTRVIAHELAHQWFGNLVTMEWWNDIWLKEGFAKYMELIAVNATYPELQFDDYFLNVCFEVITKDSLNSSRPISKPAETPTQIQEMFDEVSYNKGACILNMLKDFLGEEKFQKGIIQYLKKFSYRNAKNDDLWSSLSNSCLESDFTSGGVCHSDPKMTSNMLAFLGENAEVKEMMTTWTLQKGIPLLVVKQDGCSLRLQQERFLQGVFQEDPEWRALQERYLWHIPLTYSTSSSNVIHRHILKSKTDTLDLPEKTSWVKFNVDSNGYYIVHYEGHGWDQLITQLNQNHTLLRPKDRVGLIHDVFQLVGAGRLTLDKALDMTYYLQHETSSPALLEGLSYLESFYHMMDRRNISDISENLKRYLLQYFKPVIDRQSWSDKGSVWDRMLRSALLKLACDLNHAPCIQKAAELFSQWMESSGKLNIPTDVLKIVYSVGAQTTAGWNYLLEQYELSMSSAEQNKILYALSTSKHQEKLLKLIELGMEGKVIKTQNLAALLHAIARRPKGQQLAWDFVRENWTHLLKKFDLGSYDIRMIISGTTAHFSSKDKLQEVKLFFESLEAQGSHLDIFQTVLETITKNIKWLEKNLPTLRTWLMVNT
Procedure: as §1

[6] = molecular target: human puromycine sensitive aminopeptidase (rHsPSA) (Homo sapiens, UniProt P55786); assay: rHsPSA inhibition, Leu-pNA substrate, Dixon method; type: biochemical; settings: triplicate, SD
Chain of human puromycine sensitive aminopeptidase (rHsPSA) (P55786 whole entry): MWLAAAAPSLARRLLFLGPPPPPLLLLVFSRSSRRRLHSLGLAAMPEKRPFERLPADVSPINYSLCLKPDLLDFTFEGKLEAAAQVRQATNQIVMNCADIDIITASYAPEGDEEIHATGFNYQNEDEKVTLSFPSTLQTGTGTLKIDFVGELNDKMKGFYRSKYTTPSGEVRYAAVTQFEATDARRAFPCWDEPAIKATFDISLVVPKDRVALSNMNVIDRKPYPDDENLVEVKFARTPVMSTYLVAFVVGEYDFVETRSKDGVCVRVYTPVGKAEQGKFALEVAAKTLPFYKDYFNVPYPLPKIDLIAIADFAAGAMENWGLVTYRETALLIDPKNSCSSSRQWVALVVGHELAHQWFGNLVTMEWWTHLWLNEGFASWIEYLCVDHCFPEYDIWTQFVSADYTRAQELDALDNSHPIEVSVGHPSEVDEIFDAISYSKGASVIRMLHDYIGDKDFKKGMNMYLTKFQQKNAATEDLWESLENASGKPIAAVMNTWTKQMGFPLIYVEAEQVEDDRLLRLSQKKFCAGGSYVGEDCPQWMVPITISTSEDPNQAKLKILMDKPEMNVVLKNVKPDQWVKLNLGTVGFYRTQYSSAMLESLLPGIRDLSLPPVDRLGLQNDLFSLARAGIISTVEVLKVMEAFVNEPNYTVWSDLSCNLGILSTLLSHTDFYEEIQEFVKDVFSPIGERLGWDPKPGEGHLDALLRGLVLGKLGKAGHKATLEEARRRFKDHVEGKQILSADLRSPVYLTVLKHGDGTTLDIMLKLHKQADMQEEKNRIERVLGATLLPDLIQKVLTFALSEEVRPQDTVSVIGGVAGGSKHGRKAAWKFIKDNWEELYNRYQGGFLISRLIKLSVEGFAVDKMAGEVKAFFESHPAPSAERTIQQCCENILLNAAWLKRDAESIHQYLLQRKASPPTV
Procedure: Enzyme activity assays were carried out in 10 mM Tris-HCl buffer at pH 7.5 with 150 mM NaCl, enzyme, 100 µM substrate (Leu-pNA) in a 100 μL reaction at 37 °C. The absorbance was read at 405 nm. Concentrations ranging from 1 nM to 100 μM of inhibitors (dissolved in DMSO) were incubated with each of the enzymes ([…]) for 30 min at 37 °C in a 96 well plate. After addition of the substrate, immediate increase in absorption was measured. All inhibition assays were performed in triplicates and initial velocities were measured. Percentage inhibition and log values of inhibitor concentrations were plotted using SigmaPlot to determine IC50 values. Ki values were determined by the Dixon method. The assay consists of reaction buffer, enzyme and varied concentrations of Leu-pNA (25, 50, 100, 200 and 400 µM). […]. All the reactions were performed in triplicates, SD values were reported.

[7] = molecular target: T4, human Leucyl-cystinyl aminopeptidase (rHsIRAP) (Homo sapiens, UniProt Q9UIQ6); assay: rHsIRAP inhibition, L-AMC fluorigenic substrate; type: biochemical
T4 construct: made in house; host or cells: Hi5 insect cells (baculovirus produced in sf9)
T4 sequence (Q9UIQ6 155-1025 limits assumed): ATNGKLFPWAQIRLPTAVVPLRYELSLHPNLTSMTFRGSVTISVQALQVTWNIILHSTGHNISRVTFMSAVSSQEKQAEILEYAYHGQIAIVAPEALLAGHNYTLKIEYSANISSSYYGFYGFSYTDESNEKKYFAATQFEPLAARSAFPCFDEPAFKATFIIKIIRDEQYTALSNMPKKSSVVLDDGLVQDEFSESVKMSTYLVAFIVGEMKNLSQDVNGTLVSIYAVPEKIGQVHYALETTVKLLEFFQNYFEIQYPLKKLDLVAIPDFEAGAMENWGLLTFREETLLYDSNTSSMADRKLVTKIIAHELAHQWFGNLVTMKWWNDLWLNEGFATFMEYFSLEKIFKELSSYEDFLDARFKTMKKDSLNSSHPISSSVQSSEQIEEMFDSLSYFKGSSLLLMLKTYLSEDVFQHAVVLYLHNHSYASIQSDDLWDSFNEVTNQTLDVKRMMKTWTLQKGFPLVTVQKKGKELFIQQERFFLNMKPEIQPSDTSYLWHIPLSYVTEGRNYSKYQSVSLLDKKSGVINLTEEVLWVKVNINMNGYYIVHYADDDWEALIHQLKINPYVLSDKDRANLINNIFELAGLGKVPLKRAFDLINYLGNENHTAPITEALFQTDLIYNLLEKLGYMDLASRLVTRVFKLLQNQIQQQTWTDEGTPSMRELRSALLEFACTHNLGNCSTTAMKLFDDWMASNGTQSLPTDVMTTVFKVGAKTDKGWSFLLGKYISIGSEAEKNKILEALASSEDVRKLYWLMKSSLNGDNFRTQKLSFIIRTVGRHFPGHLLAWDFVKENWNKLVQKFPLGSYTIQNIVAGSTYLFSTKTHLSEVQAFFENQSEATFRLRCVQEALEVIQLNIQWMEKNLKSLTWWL
Procedure: The enzymatic activity of HsERAP1, HsERAP2 and HsIRAP was determined by following the time-dependent increase in fluorescence at 460 nm (excitation: 380 nm) of the fluorigenic substrates L-Leucine-7-amido-4-methyl coumarin (L-AMC; Sigma, Darmstatd, Germany) for HsERAP1 and HsIRAP and L-arginyl-7-amido-4-methyl coumarin (R-AMC; Sigma) for HsERAP2. […]. The reaction was followed for 10 min at room temperature and the remaining enzymatic activity was calculated by measuring the slope of the time course. […]

P. falciparum rPfAM17 = molecular target: T5, P. falciparum rPfAM17 (Plasmodium falciparum, UniProt Q8IL11); assay: rPfAM17 inhibition, Leu-pNA substrate, Dixon plots; type: biochemical
T5 construct: made in house; host or cells: Escherichia coli Rosetta 2 (DE3)
T5 sequence (Q8IL11 1-605): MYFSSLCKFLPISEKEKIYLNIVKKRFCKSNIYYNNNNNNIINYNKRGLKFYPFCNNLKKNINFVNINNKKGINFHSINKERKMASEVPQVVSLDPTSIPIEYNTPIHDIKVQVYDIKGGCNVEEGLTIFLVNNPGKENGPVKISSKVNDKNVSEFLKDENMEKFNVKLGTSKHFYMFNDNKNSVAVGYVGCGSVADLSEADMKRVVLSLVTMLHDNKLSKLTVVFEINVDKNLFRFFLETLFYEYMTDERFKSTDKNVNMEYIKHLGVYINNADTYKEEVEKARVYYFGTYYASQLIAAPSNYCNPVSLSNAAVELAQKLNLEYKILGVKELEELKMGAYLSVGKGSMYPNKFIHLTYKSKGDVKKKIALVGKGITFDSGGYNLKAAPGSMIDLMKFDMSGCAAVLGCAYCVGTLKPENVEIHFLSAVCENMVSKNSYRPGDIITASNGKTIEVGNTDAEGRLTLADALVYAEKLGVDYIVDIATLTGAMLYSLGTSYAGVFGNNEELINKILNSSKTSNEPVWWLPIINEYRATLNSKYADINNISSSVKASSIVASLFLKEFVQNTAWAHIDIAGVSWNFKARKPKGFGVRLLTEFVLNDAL
Procedure: Tests were carried out on HP/Agilent UV-Visible diode array spectrophotometer 8453 (HP/Agilent, Santa Clara, CA, USA), at 30 °C in Tris HCl 50 mM pH 7.4 for rPfAM1 and pH 8 for rPfAM17, with a final DMSO concentration of 1%. […]. […] Initial velocities were measured with increasing concentrations of inhibitors and Ki values were determined by Dixon plots in triplicate.

[8] = Dixon plots, triplicate, read-out: Ki rPfAM1
[9] = 50 µM L-AMC, read-out: IC50 rHsIRAP

SMILES | chromatographic logD [1] | Ki (E. coli rEcPepN) | Ki (pAPN from porcine kidney) | Ki [2] | Ki [3] | Ki (P. falciparum rPfAM1; [8]) | IC50 [4] | IC50 [5] | Ki [6] | IC50 [7, 9] | Ki (P. falciparum rPfAM17) | Ki (P. falciparum rPfAM1) | IC50 [7] | Ki ([7]; read-out: Ki HsIRAP) | Ki (E. coli rEcPepN; Dixon method, triplicate, SD, read-out: Ki rEcPepN) | times more potent than 21c on EcPepN (E. coli rEcPepN; ratio of Ki values, 21i versus 21c) | % of inhibition of rHsLTA4H [2]
NC1CCc2ccccc2CC1=O (centres unmarked) [21a] | 0.54 | 50000 ± 3000 nM | 1000 nM | > 100000 nM | > 100000 nM | 15000 ± 70 nM |  |  |  |  |  |  |  |  |  |  | 
NC1CCc2cccc(Br)c2CC1=O (centres unmarked) [21b] | 1.28 | 1070 ± 110 nM | 40 nM | > 100000 nM | > 100000 nM |  | 120000 ± 11000 nM | 49000 ± 3800 nM | 1630 ± 80 nM | 1000 ± 80 nM | > 100000 nM |  |  |  |  |  | 
NC1CCc2c(cccc2-c2ccccc2)CC1=O (centres unmarked) [21f] | 2.22 |  | 250 nM | > 100000 nM | > 100000 nM |  | 137000 ± 5000 nM | > 200000 nM |  | 2200 ± 130 nM | > 100000 nM | 2000 ± 70 nM |  |  |  |  | 
NC1CCc2c(ccc3ccccc23)CC1=O (centres unmarked) [21g] | 1.67 |  | 40 nM | > 100000 nM | > 100000 nM | 15000 ± 1000 nM |  |  |  |  |  |  |  |  |  |  | 
NC1CCc2c(Br)ccc(Br)c2CC1=O (centres unmarked) [21h] | 2.48 |  |  |  |  | 5 ± 1 nM |  |  |  |  |  |  | 34 ± 1 nM | 34 nM |  |  | 
NC1CCc2c(Br)ccc(-c3ccccc3)c2CC1=O (centres unmarked) [21i] | 3.12 |  | 0.06 nM |  | 39000 nM |  | 1600 ± 100 nM | 390 ± 13 nM | 21 ± 3 nM |  |  | 30 ± 5 nM | 120 ± 15 nM |  | 50 ± 3 nM | 3 | 68% ^#
NC1CCc2c(-c3ccccc3)ccc(Br)c2CC1=O (centres unmarked) [21j] | 3.06 |  | 70 nM |  | > 100000 nM | 4000 ± 700 nM |  |  |  |  |  |  |  |  |  |  | 54% ^#
